According to PubChem BioAssay (NCI):
Values joined by “and” are separate entries in the source; they are usually repeats but may differ in a detail not shown here. Identical values can stand only once.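 1) Cells in 96-well plates. 2) Compound, 48 h, 5 concentrations. 3) Linear interpolation between surrounding doses. 4) Unreached endpoint = highest concentration. GI50: concentration for 50% inhibition of growth. TGI is the concentration that stops growth completely.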

Legend:
Assay in all cases: growth of human tumour cells (NCI), 48 h
[1] = test system: SF-539 CNS
[2] = test system: SK-MEL-2 melanoma
[3] = test system: MDA-MB-435
[4] = test system: SR leukemia
[5] = test system: SNB-75 CNS
[6] = test system: SNB-19 CNS
[7] = test system: ACHN renal
[8] = test system: BT-549 breast
[9] = test system: MOLT-4 leukemia
[10] = test system: CCRF-CEM leukemia
[11] = test system: OVCAR-8 ovarian
[12] = test system: UACC-257 melanoma
[13] = test system: HCT-15 colon

Compound: Cc1cc(N(CCC#N)CCC#N)ccc1/C(N=Nc1ccccc1)=N\NC(=O)c1ccccc1
- TGI [1]: 54.1 µM
- TGI [2]: > 100 µM
- TGI [3]: > 100 µM
- TGI [4]: 71.6 µM
- TGI [5]: > 100 µM
- TGI [6]: > 100 µM
- TGI [7]: 41.3 µM
- TGI [8]: 77.4 µM
- TGI [9]: 64.5 µM
- TGI [10]: 61.7 µM
- TGI [11]: 90.7 µM
- TGI [12]: > 100 µM
- TGI [13]: 48 µM

Compound: CCOC(=O)/C=C(\C(=O)OCC)n1cnc2c(N)ncnc21
- TGI [1]: 29.3 µM
- TGI [2]: 30.7 µM
- TGI [3]: 24.7 µM
- TGI [4]: 4.25 µM
- TGI [5]: 26 µM
- TGI [6]: 30 µM
- TGI [7]: 18.5 µM
- TGI [8]: 27.3 µM
- TGI [9]: 6.89 µM
- TGI [10]: 4.51 µM
- TGI [11]: 18.1 µM
- TGI [12]: 27.8 µM
- TGI [13]: 12.2 µM

Compound: COc1ccc(N2CCN(Cc3c(C(C)=O)[n+](=O)c4ccccc4n3[O-])CC2)cc1
- TGI [2]: > 100 µM
- TGI [3]: > 100 µM
- TGI [4]: > 100 µM
- TGI [5]: > 100 µM
- TGI [6]: > 100 µM
- TGI [7]: > 100 µM
- TGI [8]: 53.3 µM
- TGI [10]: > 100 µM
- TGI [11]: > 100 µM
- TGI [12]: > 100 µM
- TGI [13]: > 100 µM

Compound: CC(=O)O[C@H]1[C@@H](OC2CCCC2(c2ccccc2)c2ccccc2)O[N+]([O-])=C[C@@]12COCc1cc3c(cc12)OCO3 (some centres undefined)
- TGI [1]: > 100 µM
- TGI [3]: 14.3 µM
- TGI [4]: > 23.6 µM
- TGI [5]: 34.6 µM
- TGI [6]: 49 µM
- TGI [7]: > 43.6 µM
- TGI [8]: > 86.2 µM
- TGI [9]: > 22.9 µM
- TGI [10]: > 24.5 µM
- TGI [11]: > 100 µM
- TGI [12]: > 100 µM
- TGI [13]: 67 µM

Compound: CC(=O)N1C(C(=O)NNc2ccccc2)CSC1c1ccccc1 (centres undefined)
- TGI [1]: > 100 µM
- TGI [2]: > 100 µM
- TGI [3]: > 100 µM
- TGI [4]: > 100 µM
- TGI [5]: > 100 µM
- TGI [6]: > 100 µM
- TGI [7]: > 100 µM
- TGI [8]: > 100 µM
- TGI [9]: > 100 µM
- TGI [10]: > 100 µM
- TGI [11]: > 100 µM
- TGI [12]: > 100 µM
- TGI [13]: > 100 µM

Compound: CC(=O)N1CC[N+](C)(CCCCN2c3ccccc3Sc3cc(N=[N+]=[N-])ccc32)CC1
- TGI [1]: > 100 µM
- TGI [2]: > 100 µM
- TGI [3]: > 100 µM
- TGI [4]: > 100 µM
- TGI [5]: > 100 µM
- TGI [6]: > 100 µM
- TGI [7]: > 100 µM
- TGI [8]: > 100 µM
- TGI [9]: > 100 µM
- TGI [10]: > 100 µM
- TGI [11]: > 100 µM
- TGI [12]: > 100 µM
- TGI [13]: > 100 µM

Compound: COc1ccc(C(=O)/C=C/c2ccc(OCC(=O)O)cc2)cc1
- TGI [1]: > 100 µM
- TGI [2]: > 100 µM
- TGI [3]: > 100 µM
- TGI [4]: > 100 µM
- TGI [5]: > 100 µM
- TGI [6]: > 100 µM
- TGI [7]: > 100 µM
- TGI [8]: > 100 µM
- TGI [9]: > 100 µM
- TGI [10]: > 100 µM
- TGI [11]: > 100 µM
- TGI [13]: > 100 µM

Compound: COc1cc(-c2c3c([nH]c(=O)c2C#N)-c2cc([N+](=O)[O-])ccc2CCC3)cc(OC)c1OC
- TGI [1]: > 100 µM
- TGI [2]: 44.3 µM
- TGI [3]: > 100 µM
- TGI [5]: 62.6 µM
- TGI [6]: > 100 µM
- TGI [7]: 70.6 µM
- TGI [8]: 61.3 µM
- TGI [9]: > 100 µM
- TGI [10]: > 100 µM
- TGI [11]: > 100 µM
- TGI [12]: > 100 µM
- TGI [13]: > 100 µM

Compound: CC(=O)Nc1ccc(S(=O)(=O)[N-]C2C(=O)c3ccccc3C(=O)C2[n+]2ccccc2)cc1 (centres undefined)
- TGI [1]: 33.3 µM
- TGI [2]: 25.3 µM
- TGI [3]: 14.9 µM
- TGI [4]: 42.1 µM
- TGI [5]: 30.1 µM
- TGI [6]: 27.3 µM
- TGI [7]: 30.7 µM
- TGI [8]: 13.4 µM
- TGI [9]: 47.2 µM
- TGI [10]: 40.5 µM
- TGI [11]: 38.3 µM
- TGI [12]: 29.5 µM
- TGI [13]: > 100 µM

Compound: O=c1c[n+](-c2ccccc2)[nH]o1
- TGI [1]: > 100 µM
- TGI [2]: > 100 µM
- TGI [3]: > 100 µM
- TGI [4]: > 100 µM
- TGI [5]: > 100 µM
- TGI [6]: > 100 µM
- TGI [7]: > 100 µM
- TGI [8]: > 100 µM
- TGI [10]: > 100 µM
- TGI [12]: > 100 µM
- TGI [13]: > 100 µM

Compound: COc1cc(/C=C/c2sc3ccccc3[n+]2C)ccc1N(C)C
- TGI [1]: 31.6 µM
- GI50 [2]: 12.4 µM
- TGI [2]: 8.31 µM and 29.3 µM
- GI50 [3]: 10.2 µM
- TGI [3]: 22.5 µM
- GI50 [4]: 6.85 µM
- TGI [4]: 7.71 µM and 36.3 µM
- TGI [6]: 26.8 µM
- TGI [7]: 28.6 µM
- TGI [8]: 3.7 µM
- GI50 [9]: 8.06 µM
- TGI [9]: 30 µM
- GI50 [10]: 3.76 µM
- TGI [10]: 13.9 µM
- GI50 [12]: 8.32 µM
- TGI [12]: 22.9 µM
- TGI [13]: > 100 µM

Compound: Cc1ccc(S(=O)C[C@@]2(C(F)F)NC(=O)NC2=O)cc1 (some centres undefined)
- TGI [2]: > 100 µM
- TGI [3]: > 100 µM
- TGI [4]: > 100 µM
- TGI [5]: > 100 µM
- TGI [6]: > 100 µM
- TGI [7]: > 100 µM
- TGI [8]: > 100 µM
- TGI [9]: > 100 µM
- TGI [10]: > 100 µM
- TGI [11]: > 100 µM
- TGI [12]: > 100 µM
- TGI [13]: > 100 µM

Compound: CC(C)CCNC(=O)c1ccc(CNC(=O)/C=C/c2csc(-c3ccccc3)n2)cc1
- TGI [1]: > 100 µM
- TGI [2]: > 100 µM
- TGI [3]: > 100 µM
- TGI [5]: 41.8 µM
- TGI [6]: 56.6 µM
- TGI [7]: > 100 µM
- TGI [8]: > 100 µM
- TGI [9]: > 100 µM
- TGI [10]: > 100 µM
- TGI [11]: 79.2 µM
- TGI [12]: > 100 µM
- TGI [13]: > 100 µM

Compound: CC(C)/C(Cl)=N\OC(=O)Nc1ccc(F)c([N+](=O)[O-])c1
- TGI [1]: 7.82 µM
- TGI [2]: 29.9 µM
- TGI [3]: 26 µM
- TGI [4]: 26.3 µM
- TGI [5]: 27.2 µM
- TGI [6]: 30.6 µM
- TGI [7]: 3.39 µM
- TGI [8]: 27 µM
- TGI [9]: 4.94 µM
- TGI [11]: 10.9 µM
- TGI [12]: 33.5 µM
- TGI [13]: 6.75 µM

Compound: COc1ccc(-c2oc3cc(OC)c(OC)c(OC)c3c(=O)c2OC)cc1OC
- TGI [1]: > 100 µM
- TGI [2]: > 100 µM
- TGI [3]: > 100 µM
- TGI [5]: > 100 µM
- TGI [6]: > 100 µM
- TGI [7]: > 100 µM
- TGI [8]: > 100 µM
- TGI [9]: > 100 µM
- TGI [10]: > 100 µM
- TGI [11]: > 100 µM
- TGI [12]: > 100 µM
- TGI [13]: > 100 µM

Compound: c1cc2cc(c1)CN1CCNCCN(CCNCC1)Cc1cccc(c1)CN1CCNCCN(CCNCC1)C2
- TGI [1]: > 100 µM
- TGI [2]: > 100 µM
- TGI [3]: > 100 µM
- TGI [4]: > 100 µM
- TGI [5]: > 100 µM
- TGI [6]: > 100 µM
- TGI [7]: > 100 µM
- TGI [8]: > 100 µM
- TGI [9]: > 100 µM
- TGI [11]: > 100 µM
- TGI [12]: > 100 µM
- TGI [13]: > 100 µM

Compound: O=C(O)CSc1nnc(CCCCCCCCc2nnc(SCC(=O)O)o2)o1
- TGI [2]: > 100 µM
- TGI [3]: > 100 µM
- TGI [4]: > 100 µM
- TGI [5]: 73.1 µM
- TGI [6]: > 100 µM
- TGI [7]: > 100 µM
- TGI [8]: > 100 µM
- TGI [9]: > 100 µM
- TGI [10]: > 100 µM
- TGI [11]: > 100 µM
- TGI [12]: > 100 µM
- TGI [13]: > 100 µM

Compound: O=C1C=CC[C@H](/C=C/C[C@@H](O)C[C@H](O)/C=C/c2ccccc2)O1
- TGI [1]: 21.5 µM
- TGI [2]: 26.3 µM
- TGI [3]: 23.4 µM
- TGI [5]: 26.4 µM
- TGI [6]: 34.1 µM
- TGI [7]: 27.8 µM
- TGI [8]: 23.6 µM
- TGI [9]: 39.6 µM
- TGI [10]: 19.1 µM
- TGI [11]: 32.9 µM
- TGI [12]: 26.9 µM
- TGI [13]: 23 µM
